Test results as given in patent publication US20170349949A1, “METHODS OF SELECTING SUBJECTS FOR TREATMENT WITH METABOLIC MODULATORS” (Partikula LLC, priority 2016, published 2017).

Experiments:
pyruvate dehydrogenase = conditions: highly purified pyruvate dehydrogenase, cited from earlier work
HCT116 tumors = experiment: KULA2 in mice harboring HCT116 tumors (MPC null); assay type: in vivo; conditions: comparator results named beside KULA2 in HCT116; dose and source not given
Experimental: CT26 is the MPC+ group. MPC levels were verified via western blotting or otherwise known (see, e.g., Schell, et al., Molecular Cell, 56:400-413 (2014)).
In both models HCT116 and CT26 the mice (between 8-10 per arm) were dosed with KULA2 via i.p. injection and vehicle, HCT116 tumors at a dose of 20 mg/kg, and CT26 tumors at a dose of 18 mg/kg. Dosing schedule in both cases was 5 days on, 2 days off for the duration of the study.
Experiments were designed to determine if MPC expression correlates with the efficacy of PDK inhibitor. A PDK inhibitor, KULA2, was administered to mice harboring HCT116 tumors (at a dose of 20 mg/kg) or CT26 tumors (at a dose of 18 mg/kg).

A549 cells = experiment: Extracellular lactate after PDK inhibitor, with or without UK5099 pre-treatment; assay type: cell-based; conditions: 16 hrs UK5099 pre-treatment, then DCA 50 mM or KULA2 500 μM for 6 hrs
Experimental: A549 cells were pre-treated for 16 hrs with the MPC inhibitor UK5099 and then subsequently treated with the test articles for 6 hrs; extracellular lactate was then measured. Dichloroacetate (DCA) and KULA2, a dichloroacetate (DCA) analogue targeted to the mitochondria with a lipophilic triphenylphosphonium (TPP) cation moiety, were used ((Pathak R K et al., ACS Chem. Biol., 9 (5) 1178-1187 (2014), (Pathak R K et al., ACS Chem. Biol., 9 (5) 1178-1187 (2014), and WO/2015/002996). DCA is dosed at 50 mM and KULA2 is dosed at 500 μM.

Compound | tumor inhibition (comparators) (HCT116 tumors) [%] | also measured
Cc1ncc(C[n+]2csc(CCO[P@](=O)(O)OP(=O)(O)O)c2C)c(N)n1 [TPP, thiamine pyrophosphate] | – | Km (pyruvate dehydrogenase; read-out: Km of cofactor): 0.11 µM
CNC(=O)c1cc(Oc2ccc(NC(=O)Nc3ccc(Cl)c(C(F)(F)F)c3)cc2)ccn1 [sorafenib] | 17 | –
VEGF-TRAP: comparator named for tumor inhibition | 22 | –
N#C/C(=C\c1cn(-c2ccccc2)c2ccccc12)C(=O)O [UK5099] | – | effect of MPC inhibition on lactate reduction by PDK inhibitors (A549 cells): lowers the lactate reduction normally seen with PDK inhibitors
N.N.[Cl][Pt][Cl] [cisplatin] | 22 | –
Cc1ncc(C[n+]2csc(CCO)c2C)c(=O)[nH]1 [oxythiamine, Oxythiamine] | – | Ki (pyruvate dehydrogenase; oxythiamine diphosphate ester, read-out: KI against the normal cofactor TPP): 70 nM
